Assays:
Jarid1B = molecular target: T1, Jarid1B (Homo sapiens, UniProt Q9UGL1); experiment: Jarid1B in vitro enzyme inhibition assay (TR-FRET); type: biochemical; conditions: Table 5; 0.8 nM Jarid1B, H3K4me3-biotin labeled peptide; read-out: JARID1B IC5
T1 construct: purchased BPS Bioscience (or custom made by MolecularThroughput) 50121
T1 sequence (Q9UGL1 2-751): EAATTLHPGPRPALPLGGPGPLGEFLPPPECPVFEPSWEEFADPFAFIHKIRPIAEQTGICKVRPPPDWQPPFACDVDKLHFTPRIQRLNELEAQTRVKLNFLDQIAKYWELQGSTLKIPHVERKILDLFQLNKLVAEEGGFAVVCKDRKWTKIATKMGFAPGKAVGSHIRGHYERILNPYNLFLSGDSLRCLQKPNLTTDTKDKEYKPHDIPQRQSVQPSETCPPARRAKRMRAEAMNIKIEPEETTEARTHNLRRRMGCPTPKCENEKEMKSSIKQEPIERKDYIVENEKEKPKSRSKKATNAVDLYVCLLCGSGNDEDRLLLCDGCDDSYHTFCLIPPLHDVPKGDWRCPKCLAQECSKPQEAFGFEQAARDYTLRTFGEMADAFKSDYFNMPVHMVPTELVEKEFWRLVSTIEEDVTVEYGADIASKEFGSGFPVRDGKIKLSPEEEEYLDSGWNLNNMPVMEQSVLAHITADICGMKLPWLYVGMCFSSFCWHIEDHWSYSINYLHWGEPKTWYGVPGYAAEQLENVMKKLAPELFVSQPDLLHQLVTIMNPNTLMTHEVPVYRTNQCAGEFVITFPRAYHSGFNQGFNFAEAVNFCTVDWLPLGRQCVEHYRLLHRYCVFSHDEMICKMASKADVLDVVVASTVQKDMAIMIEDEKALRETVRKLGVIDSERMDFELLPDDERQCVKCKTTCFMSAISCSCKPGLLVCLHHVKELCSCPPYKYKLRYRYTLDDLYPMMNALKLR
From the text: (§1) This assay determines the ability of a test compound to inhibit Jarid1B, JMJD2C and JMJD3 demethylase activity. Baculovirus expressed Jarid1B (GenBank Accession #NM-006618, AA 2-751) was purchased from BPS Bioscience (Cat #50121) or custom made by MolecularThroughput. Baculovirus expressed JMJD2C (GenBank Accession #BC143571, AA 2-372) was purchased from BPS Bioscience (Cat#50105). Baculovirus expressed JMJD3 (GenBank Accession #NM-001080424, AA1043-end) was purchased from BPS Bioscience (Cat#50115).
The ability of test compounds to inhibit the activity of Jarid1B was determined in 384-well plate format under the following reaction conditions: 0.8 nM Jarid1B, 300 nM H3K4me3-biotin labeled peptide (Anaspec cat #64357), 2 µM alpha-ketoglutaric acid in assay buffer of 50 mM HEPES, pH7.3, 0.005% Brij35, 0.5 mM TCEP, 0.2 mg/ml BSA, 50 µM sodium L-ascorbate, and 2 µM ammonium iron(II) sulfate. Reaction product was determined quantitatively by TR-FRET after the addition of detection reagent Phycolink Streptavidin-allophycocyanin (Prozyme) and Europium-anti-mono-or di-methylated histone H3 lysine 4 (H3K4me1-2) antibody (PerkinElmer) in the presence of 5 mM EDTA in LANCE detection buffer (PerkinElmer) at a final concentration of 25 nM and 1 nM, respectively.
(§2) The assay reaction was initiated by the following: 2 µl of the mixture of 900 nM H3K4me3-biotin labeled peptide and 6 µM alpha-ketoglutaric acid with 2 µl of 11-point serial diluted inhibitor in 3% DMSO was added to each well of the plate, followed by the addition of 2 µl of 2.4 nM Jarid1B to initiate the reaction. The reaction mixture was incubated at room temperature for 30 minutes, and terminated by the addition of 6 µl of 5 mM EDTA in LANCE detection buffer containing 50 nM Phycolink Streptavidin-allophycocyanin and 2 nM Europium-anti-H3K4me1-2 antibody. Plates were read by EnVisionMultilabel Reader in TR-FRET mode (excitation at 320 nm, emission at 615 nm and 665 nm) after 1 hour incubation at room temperature. A ratio was calculated (665/615) for each well and fitted to determine inhibition constant (IC50).

JMJD2C = molecular target: T2, JMJD2C (Homo sapiens, UniProt Q9H3R0); experiment: JMJD2C in vitro enzyme inhibition assay (TR-FRET); type: biochemical; conditions: Table 5; 0.3 nM JMJD2C, H3K9me3-biotin labeled peptide
T2 construct: purchased BPS Bioscience 50105
T2 sequence (Q9H3R0 2-372): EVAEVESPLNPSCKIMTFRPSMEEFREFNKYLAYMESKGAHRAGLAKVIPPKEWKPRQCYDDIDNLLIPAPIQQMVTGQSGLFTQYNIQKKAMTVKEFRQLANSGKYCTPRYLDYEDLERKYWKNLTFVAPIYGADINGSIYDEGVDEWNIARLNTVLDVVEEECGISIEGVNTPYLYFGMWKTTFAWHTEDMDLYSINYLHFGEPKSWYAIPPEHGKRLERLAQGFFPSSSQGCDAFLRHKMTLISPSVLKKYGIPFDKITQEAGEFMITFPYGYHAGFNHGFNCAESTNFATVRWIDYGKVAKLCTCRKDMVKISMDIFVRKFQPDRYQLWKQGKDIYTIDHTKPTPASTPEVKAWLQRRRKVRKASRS
From the text: as §1
The ability of test compounds to inhibit the activity of JMJD2C was determined in 384-well plate format under the following reaction conditions: 0.3 nM JMJD2C, 300 nM H3K9me3-biotin labeled peptide (Anaspec cat #64360), 2 µM alpha-ketoglutaric acid in assay buffer of 50 mM HEPES, pH7.3, 0.005% Brij35, 0.5 mM TCEP, 0.2 mg/ml BSA, 50 µM sodium L-ascorbate, and 2 µM ammonium iron(II) sulfate. Reaction product was determined quantitatively by TR-FRET after the addition of detection reagent Phycolink Streptavidin-allophycocyanin (Prozyme) and Europium-anti-di-methylated histone H3 lysine 9 (H3K9me2) antibody (PerkinElmer) in the presence of 5 mM EDTA in LANCE detection buffer (PerkinElmer) at a final concentration of 50 nM and 1 nM, respectively.
as §2, with “nM H3K9me3-biotin” for “nM H3K4me3-biotin”, “DMSO were” for “DMSO was”, “of 0.9” for “of 2.4”, “nM JMJD2C” for “nM Jarid1B”, “containing 100” for “containing 50”, “nM Europium-anti-H3K9me2” for “nM Europium-anti-H3K4me1-2”

Row | Compound | IC50 (Jarid1B) [µM] | IC50 (JMJD2C) [µM]
1 | FC(F)(F)COc1ccccc1Cn1cnc(-c2cc(-c3nn[nH]c3C(F)(F)F)ccn2)c1 [Example 76, 2-(1-{[2-(2,2,2-trifluoroethoxy)phenyl]methyl}-1H-imidazol-4-yl)-4-[5-(trifluoromethyl)-1H-1,2,3-triazol-4-yl]pyridine] | 0.1 to 1 | > 10
2 | Fc1ccc(Cn2cnc(-c3cc(-c4nn[nH]c4C(F)(F)F)ccn3)c2)cc1 [Example 61, 2-{1-[(4-fluorophenyl)methyl]-1H-imidazol-4-yl}-4-[5-(trifluoromethyl)-1H-1,2,3-triazol-4-yl]pyridine] | 0.1 to 1 | > 10
3 | FC(F)(F)c1[nH]nnc1-c1ccnc(-c2cn(CC3CCCc4ccccc43)cn2)c1 (stereo not shown) [Example 58, 2-{1-[(1,2,3,4-tetrahydronaphthalen-1-yl)methyl]-1H-imidazol-4-yl}-4-[5-(trifluoromethyl)-1H-1,2,3-triazol-4-yl]pyridine] | ≤ 0.1 | > 10
4 | FC(F)(F)c1[nH]nnc1-c1ccnc(-c2cn(Cc3ccccc3)cn2)c1 [Example 72, 2-(1-benzyl-1H-imidazol-4-yl)-4-[5-(trifluoromethyl)-1H-1,2,3-triazol-4-yl]pyridine] | 0.1 to 1 | > 10
5 | Cc1ccccc1Cn1cnc(-c2cc(-c3nn[nH]c3C(F)(F)F)ccn2)c1 [Example 66, 2-{1-[(2-methylphenyl)methyl]-1H-imidazol-4-yl}-4-[5-(trifluoromethyl)-1H-1,2,3-triazol-4-yl]pyridine] | 0.1 to 1 | > 10
6 | FC(F)(F)c1[nH]nnc1-c1ccnc(-c2cn(CCc3ccccc3Cl)cn2)c1 [Example 57] | ≤ 0.1 | > 10
7 | COc1ccc(Cn2cnc(-c3cc(-c4nn[nH]c4C(F)(F)F)ccn3)c2)cc1 [Example 67, 2-{1-[(4-methoxyphenyl)methyl]-1H-imidazol-4-yl}-4-[5-(trifluoromethyl)-1H-1,2,3-triazol-4-yl]pyridine] | 0.1 to 1 | 1 to 10
8 | Fc1ccc(Cn2cnc(-c3cc(-c4nn[nH]c4C(F)(F)F)ccn3)c2)c(F)c1 [Example 68, 2-{1-[(2,4-difluorophenyl)methyl]-1H-imidazol-4-yl}-4-[5-(trifluoromethyl)-1H-1,2,3-triazol-4-yl]pyridine] | 0.1 to 1 | > 10
9 | Cc1cc(F)ccc1Cn1cnc(-c2cc(-c3nn[nH]c3C(F)(F)F)ccn2)c1 [Example 70, 2-{1-[(4-fluoro-2-methylphenyl)methyl]-1H-imidazol-4-yl}-4-[5-(trifluoromethyl)-1H-1,2,3-triazol-4-yl]pyridine] | 0.1 to 1 | > 10
10 | CC(C)C(c1ccccc1)n1cnc(-c2cc(-c3nn[nH]c3C(F)(F)F)ccn2)c1 (stereo not shown) [Example 75, 2-[1-(2-methyl-1-phenylpropyl)-1H-imidazol-4-yl]-4-[5-(trifluoromethyl)-1H-1,2,3-triazol-4-yl]pyridine] |  | > 10

Continued, values first:

Row | IC50 (Jarid1B) [µM] | IC50 (JMJD2C) [µM] | Compound
11 | ≤ 0.1 | > 10 | Cn1cnc(-c2cc(-c3nn[nH]c3C(F)(F)F)ccn2)c1-c1ccc(F)cc1 [Example 97, 2-[5-(4-fluorophenyl)-1-methyl-1H-imidazol-4-yl]-4-[5-(trifluoromethyl)-1H-1,2,3-triazol-4-yl]pyridine]
12 | 0.1 to 1 | > 10 | Fc1cc(F)c(CCn2cnc(-c3cc(-c4nn[nH]c4C(F)(F)F)ccn3)c2)c(F)c1 [Example 82, 4-[5-(trifluoromethyl)-1H-1,2,3-triazol-4-yl]-2-{1-[2-(2,4,6-trifluorophenyl)ethyl]-1H-imidazol-4-yl}pyridine]
13 | 0.1 to 1 | > 10 | Cc1ccc2c(c1)CCCC2Cn1cnc(-c2cc(-c3nn[nH]c3C(F)(F)F)ccn2)c1 (stereo not shown) [Example 102, 2-{1-[(6-methyl-1,2,3,4-tetrahydronaphthalen-1-yl)methyl]-1H-imidazol-4-yl}-4-[5-(trifluoromethyl)-1H-1,2,3-triazol-4-yl]pyridine]
14 | ≤ 0.1 | > 10 | O=C(c1ccccc1)N1CCC[C@@H](n2cnc(-c3cc(-c4nn[nH]c4C(F)(F)F)ccn3)c2)C1 [Example 89, 2-{1-[(3R)-1-benzoylpiperidin-3-yl]-1H-imidazol-4-yl}-4-[5-(trifluoromethyl)-1H-1,2,3-triazol-4-yl]pyridine]
15 | ≤ 0.1 | 1 to 10 | FC(F)(F)c1[nH]nnc1-c1ccnc(-c2cn(CC3CCc4ccccc43)cn2)c1 (stereo not shown) [Example 83, 2-{1-[(2,3-dihydro-1H-inden-1-yl)methyl]-1H-imidazol-4-yl}-4-[5-(trifluoromethyl)-1H-1,2,3-triazol-4-yl]pyridine]
16 | ≤ 0.1 | > 10 | Fc1ccc(F)c(CCn2cnc(-c3cc(-c4nn[nH]c4C(F)(F)F)ccn3)c2)c1 [Example 88, 2-{1-[2-(2,5-difluorophenyl)ethyl]-1H-imidazol-4-yl}-4-[5-(trifluoromethyl)-1H-1,2,3-triazol-4-yl]pyridine]
17 | ≤ 0.1 | > 10 | Cc1ccc2c(c1)C(Cn1cnc(-c3cc(-c4nn[nH]c4C(F)(F)F)ccn3)c1)CCC2 (stereo not shown) [Example 103, 2-{1-[(7-methyl-1,2,3,4-tetrahydronaphthalen-1-yl)methyl]-1H-imidazol-4-yl}-4-[5-(trifluoromethyl)-1H-1,2,3-triazol-4-yl]pyridine]
18 |  | > 10 | Fc1cccc2c1CCCC2Cn1cnc(-c2cc(-c3nn[nH]c3C(F)(F)F)ccn2)c1 (stereo not shown) [Example 99, 2-{1-[(5-fluoro-1,2,3,4-tetrahydronaphthalen-1-yl)methyl]-1H-imidazol-4-yl}-4-[5-(trifluoromethyl)-1H-1,2,3-triazol-4-yl]pyridine]

Source: EP3436445B1, “HISTONE DEMETHYLASE INHIBITORS” (Celgene Quanticel Research, Inc., priority 2016, dated 2017)
